{
  "source": "patent US20090304663A1",
  "about": "“USE OF GSK-3 INHIBITORS FOR THE TREATMENT OF PROSTATE CANCER” (IMPERIAL INNOVATIONS LIMITED, priority 2004, published 2009)",
  "key": {"[1]": {"tested_on": "panel of 79 commonly studied protein kinases, including several PKC isozymes", "conditions": "in words; cited from earlier work"}, "GSK-3": {"target": "GSK-3", "conditions": "cited from earlier work"}, "human GSK-3": {"target": "human GSK-3", "conditions": "cited from earlier work"}, "[2]": {"tested_on": "inositol monophosphatases", "conditions": "in words; cited from earlier work"}, "[3]": {"tested_on": "AR transcriptional activity", "experiment": "AR transcriptional activity, MMTV-Luciferase reporter in CWR-R1 cells", "assay_type": "cell-based"}, "22Rv1 cells": {"tested_on": "22Rv1 cells", "experiment": "cell growth assay, 22Rv1 cells", "assay_type": "cell-based"}, "[4]": {"tested_on": "β-catenin/Tcf transcriptional activity", "experiment": "β-catenin/Tcf transcriptional activity, pOT-Luciferase reporter in CWR-R1 cells", "assay_type": "cell-based", "conditions": "20 μM SB415286 or 5 μM SB216763, 24 h, normal growth medium"}, "CWR-R1 cells": {"tested_on": "CWR-R1 cells", "experiment": "cell growth assay, CWR-R1 cells", "assay_type": "cell-based", "conditions": "for CWR-R1 cell growth (number of cells): 5 μM SB216763 or 20 μM SB415286, up to 6 days", "method": "(a) CWR-R1 cells were grown in the presence of carrier (ut). […] The experiment was done twice in triplicate and the error bars indicate standard deviation. […] The experiment was done in triplicate and the error bars indicate standard deviation. […] The number of cells was counted after 72 h (or after 5 days for LNCaP cells). Experiments were done in triplicate and the error bars indicate standard deviation. […] Cell growth assays were conducted according to Gregory et al, (2001). Briefly, cells (1.5×10^5/well) were plated in 12-well plates (three wells were used for each condition) and allowed to attach overnight. […] Cells were collected by trypsinisation at the indicated times and were counted using a Coulter Counter or using a haemocytometer."}, "LNCaP cells": {"tested_on": "LNCaP cells", "experiment": "cell growth assay, LNCaP cells", "assay_type": "cell-based", "conditions": "5 μM SB216763, hormone-depleted medium with 1 nM R1881, 5 days", "method": "(§1) The number of cells was counted after 72 h (or after 5 days for LNCaP cells). Experiments were done in triplicate and the error bars indicate standard deviation. […] Cell growth assays were conducted according to Gregory et al, (2001). Briefly, cells (1.5×10^5/well) were plated in 12-well plates (three wells were used for each condition) and allowed to attach overnight. […] Cells were collected by trypsinisation at the indicated times and were counted using a Coulter Counter or using a haemocytometer."}, "DU145 cells": {"tested_on": "DU145 cells", "experiment": "cell growth assay, DU145 cells", "assay_type": "cell-based", "conditions": "5 μM SB216763, normal growth medium, 72 h", "method": "as §1"}, "PC3 cells": {"tested_on": "PC3 cells", "experiment": "cell growth assay, PC3 cells", "assay_type": "cell-based", "conditions": "5 μM SB216763, normal growth medium, 72 h", "method": "as §1"}, "AR protein": {"tested_on": "AR protein", "experiment": "AR protein level by western blotting in CWR-R1 cells", "assay_type": "cell-based", "conditions": "5 μM SB216763 or 20 μM SB415286, 24 h, western blot", "method": "FIG. 6: Inhibition of GSK-3 leads to a reduction in AR protein levels. […] Western blots of whole cell extracts were probed for AR (upper panels) and reprobed for γ-tubulin as an internal loading control (lower panels).\nCells were grown to 50-70% confluence in 100 mm dishes or 6-well plates. Lysates were obtained using the following steps: Cells were rinsed in cold TBS, lysed in modified RIP A buffer (0.5% deoxycholate, 1% Triton X-100, 20 mM Tris pH 8.0, 0.1% SDS, 100 mM NaCl, 50 mM NaF) or Nonidet P-40 buffer (1% NP-40, 20 mM Tris pH 8.0, 150 mM NaCl, 50 mM NaF) for 10 min and centrifuged for 12 min at 15,000×g. Cell extracts were then mixed with an equal volume of SDS sample buffer (Sigma Aldrich) and heated to 95° C. for 3 min. For immunoprecipitation (IP) assays in transfected COS7 cells, cell extracts were prepared using NP-40 lysis buffer, incubated with primary antibody for 1 h on ice. This was followed by 30 min incubation with 20 μl protein A/G-agarose (Cambridge Biosciences) on a rotating wheel in the cold room. After 4 washes in lysis buffer and 1 wash in TBS, the beads were resuspended in 10 μl of SDS sample buffer and heated as above. […]"}, "[5]": {"conditions": "CWR-R1 cells, 10 nM R1881, 20 μM SB415286 or 5 μM SB216763, 24 h"}},
  "note": "Entries after “also recorded” stand apart in the source; their conditions may differ. Like-named read-outs stand apart in the source and are kept apart here.",
  "data": [
    {"compound": "O=C1NC(=O)C(c2cn(CCCO)c3ncccc23)=C1c1cnccn1", "note": "[3-(1-(3-Hydroxypropyl)-1H-pyrrolo[2,3-b]pyridin-3-yl]-4-pyrazin-2-yl-pyrrole-2,5-dione]", "values": [
      {"measurement": "inhibition of the kinase panel", "setting": "[1]", "value": "minimally inhibits"}
    ]},
    {"compound": "Cc1cc(Nc2nc(-c3ccccc3)nc3ccccc23)n[nH]1", "note": "[5-Methyl-1H-pyrazol-3-yl)-(2-phenylquinazolin-4-yl)amine]", "values": [
      {"measurement": "Ki", "setting": "GSK-3; ATP-binding site inhibitor", "value": 24, "unit": "nM"}
    ]},
    {"compound": "Cc1c[nH]c(-c2cnc(NCCNc3ccc(C#N)cn3)nc2-c2ccc(Cl)cc2Cl)n1", "note": "[CHIR 99021]", "values": [
      {"measurement": "Ki", "setting": "human GSK-3", "value": "[…]"}
    ]},
    {"compound": "[Cl-].[Li+]", "note": "[Lithium chloride, lithium chloride]", "values": [
      {"measurement": "IC50 value", "setting": "GSK-3; in words", "value": "high"},
      {"measurement": "inhibition of inositol monophosphatases relative to GSK-3", "setting": "[2]", "value": "to a similar extent"}
    ]},
    {"compound": "C[C@]1(O)CC[C@H]2[C@@H]3CCC4=CC(=O)CCC4=C3C=C[C@@]21C", "note": "[R1881, methyltrienolone]", "values": [
      {"measurement": "AR transcriptional activity", "setting": "[3]", "value": "increase"},
      {"measurement": "growth of 22Rv1 cells", "setting": "22Rv1 cells; hormone-depleted medium, 10^−12 M or 10^−9 M R1881, 72 h", "value": "stimulated"}
    ]},
    {"compound": "Cn1cc(C2=C(c3ccc(Cl)cc3Cl)C(=O)NC2=O)c2ccccc21", "note": "[SB216763]", "values": [
      {"measurement": "β-catenin/Tcf-dependent transcriptional activity", "setting": "[4]", "value": "increased"},
      {"measurement": "AR transcriptional activity", "setting": "[3]; [5]", "value": "reduced"},
      {"measurement": "growth of CWR-R1 cells (number of cells)", "setting": "CWR-R1 cells; 5 μM SB216763, normal growth medium, 72 h", "value": "significantly reduced"},
      {"measurement": "CWR-R1 cell growth (number of cells)", "setting": "CWR-R1 cells", "value": "repressed"},
      {"measurement": "concentration at which inhibitory effects on cell growth were maximal (optimal dose)", "setting": "CWR-R1 cells; CWR-R1 cells, 72 h, complete growth medium", "value": 3, "unit": "µM"},
      {"measurement": "growth of 22Rv1 cells (number of cells)", "setting": "22Rv1 cells; 5 μM SB216763, hormone-depleted medium with 1 nM R1881, 72 h", "value": "significantly reduced"},
      {"measurement": "R1881-stimulated growth of 22Rv1 cells", "setting": "22Rv1 cells; 5 μM SB216763, hormone-depleted medium with R1881, 72 h", "value": "blocked"},
      {"measurement": "hormone-independent proliferation of 22Rv1 cells", "setting": "22Rv1 cells; 5 μM SB216763, hormone-depleted medium, absence of hormone, 72 h", "value": "inhibited"},
      {"measurement": "growth of LNCaP cells (number of cells)", "setting": "LNCaP cells", "value": "significantly reduced; also recorded: weakly inhibited"},
      {"measurement": "DU145 cell growth (number of cells)", "setting": "DU145 cells", "value": "did not significantly affect"},
      {"measurement": "PC3 cell growth (number of cells)", "setting": "PC3 cells", "value": "did not significantly affect"},
      {"measurement": "protein level of AR", "setting": "AR protein", "value": "reduced"}
    ]},
    {"compound": "O=C1NC(=O)C(c2ccccc2[N+](=O)[O-])=C1Nc1ccc(O)c(Cl)c1", "note": "[SB415286]", "values": [
      {"measurement": "AR transcriptional activity", "setting": "[3]; [5]", "value": "reduced"},
      {"measurement": "CWR-R1 cell growth (number of cells)", "setting": "CWR-R1 cells", "value": "repressed"},
      {"measurement": "dose dependence of inhibitory effects on CWR-R1 cell growth", "setting": "CWR-R1 cells; up to 50 μM, data not shown", "value": "increased with dose up to the maximal dose tested"},
      {"measurement": "protein level of AR", "setting": "AR protein", "value": "reduced"}
    ]},
    {"compound": "CHIR 98014", "values": [
      {"measurement": "Ki", "setting": "human GSK-3", "value": 0.87, "unit": "nM"}
    ]}
  ]
}
